Read-outs that look alike come from different tables or passages of the source.
Target: T1, human CARM1 (PRMT4) (Flag- and His-tagged) (Homo sapiens, UniProt Q86X55)
T1 construct: Flag-CARM1-His; made in house; host or cells: HEK 293F cells (BacMam baculovirus)
T1 sequence (Q86X55 1-585 isoform Q86X55-1): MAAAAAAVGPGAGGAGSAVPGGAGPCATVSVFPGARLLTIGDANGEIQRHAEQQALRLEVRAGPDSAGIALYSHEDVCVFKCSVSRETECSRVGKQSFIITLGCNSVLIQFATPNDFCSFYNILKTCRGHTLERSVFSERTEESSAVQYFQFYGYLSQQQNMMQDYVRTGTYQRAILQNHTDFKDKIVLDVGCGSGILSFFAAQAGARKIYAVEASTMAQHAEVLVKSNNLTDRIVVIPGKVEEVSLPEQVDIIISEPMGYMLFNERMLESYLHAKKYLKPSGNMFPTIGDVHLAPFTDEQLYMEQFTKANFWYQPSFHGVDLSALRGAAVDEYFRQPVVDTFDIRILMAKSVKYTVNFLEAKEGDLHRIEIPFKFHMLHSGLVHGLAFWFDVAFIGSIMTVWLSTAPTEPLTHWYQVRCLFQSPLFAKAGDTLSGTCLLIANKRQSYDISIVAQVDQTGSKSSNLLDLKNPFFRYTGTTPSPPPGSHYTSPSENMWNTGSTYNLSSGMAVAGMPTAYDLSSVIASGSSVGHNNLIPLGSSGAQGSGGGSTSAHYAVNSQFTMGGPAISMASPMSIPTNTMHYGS
Experiment: CARM1 Biochemical Assay (3H-SAM Flashplate, peptide substrate)
Excerpt: General Materials. S-adenosylmethionine (SAM), S-adenosylhomocysteine (SAH), bicine, Tween20, dimethylsulfoxide (DMSO), bovine skin gelatin (BSG), sodium butyrate and Tris(2-carboxyethyl)phosphine hydrochloride solution (TCEP) were purchased from Sigma-Aldrich at the highest level of purity possible. ^3H-SAM was purchase from American Radiolabeled Chemicals with a specific activity of 80 Ci/mmol. 384-well streptavidin Flashplates were purchased from PerkinElmer.
Substrates. Peptide representative of human histone H3 residues 16-30 was synthesized with an N-terminal linker-affinity tag motif and a C-terminal amide cap by 21st Century Biochemicals. The peptide was purified by high-performance liquid chromatography (HPLC) to greater than 95% purity and confirmed by liquid chromatography mass spectrometry (LC-MS). The sequence was Biot-Ahx-[…]-amide and contained a monomethylated arginine at position 26 (SEQ ID NO.:14).
Molecular Biology: Human CARM1 (PRMT4) (NM_199141.1) transcript clone was amplified from an HEK 293 cDNA library, incorporating a flanking 5′ sequence encoding a FLAG tag ([…]) (SEQ ID NO.:6) fused directly to Ala 2 of CARM1 and 3′ sequence encoding a hexa His sequence ([…]) (SEQ ID NO.:15) fused directly to Ser 608. The gene sequence encoding isoform1 containing a deletion of amino acids 539-561 was amplified subsequently and subcloned into pFastBacMam (Viva Biotech).
Protein Expression. Recombinant baculovirus were generated according to Bac-to-Bac kit instructions (Life Technologies). […] Infections were carried out at 37° C. for 48 hours, harvested by centrifugation, and stored at −80° C. for purification.
Protein Purification. […] Column was washed with 500 mM NaCl in buffer A and Flag-CARM1-His was eluted with 200 ug/ml FLAG peptide in buffer A. Pooled fractions were dialyzed in 20 mM Tris, 150 mM NaCl, 5% glycerol and 1 mM DTT, pH 7.8. The purity of recovered protein was 94.
General Procedure for CARM1 Enzyme Assays on Peptide Substrates. The assays were all performed in a buffer consisting of 20 mM Bicine (pH=7.6), 1 mM TCEP, 0.005% BSG, and 0.002% Tween 20, prepared on the day of use. Compounds in 100% DMSO (1 ul) were spotted into a polypropylene 384-well V-bottom plates (Greiner) using a Platemate Plus outfitted with a 384-channel head (Thermo Scientific). DMSO (1 ul) was added to Columns 11, 12, 23, 24, rows A-H for the maximum signal control and 1 ul of SAH, a known product and inhibitor of CARM1, was added to columns 11, 12, 23, 24, rows I-P for the minimum signal control. A cocktail (40 ul) containing the CARM1 enzyme was added by Multidrop Combi (Thermo-Fisher). The compounds were allowed to incubate with CARM1 for 30 min at room temperature, then a cocktail (10 ul) containing ^3H-SAM and peptide was added to initiate the reaction (final volume=51 ul). The final concentrations of the components were as follows: CARM1 was 0.25 nM, ^3H-SAM was 30 nM, peptide was 250 nM, SAH in the minimum signal control wells was 1 mM, and the DMSO concentration was 2%. The assays were stopped by the addition of non-radiolabeled SAM (10 ul) to a final concentration of 300 uM, which dilutes the ^3H-SAM to a level where its incorporation into the peptide substrate is no longer detectable. 50 ul of the reaction in the 384-well polypropylene plate was then transferred to a 384-well Flashplate and the biotinylated peptides were allowed to bind to the streptavidin surface for at least 1 hour before being washed once with 0.1% Tween20 in a Biotek ELx405 plate washer. The plates were then read in a PerkinElmer TopCount plate reader to measure the quantity of ^3H-labeled peptide bound to the Flashplate surface, measured as disintegrations per minute (dpm) or alternatively, referred to as counts per minute (cpm).
Where dpm=disintegrations per minute, cmpd=signal in assay well, and min and max are the respective minimum and maximum signal controls. […]

Question: What does the source list for CN(CCN)Cc1c[nH]nc1CCc1ccccc1 [Compound 9]?
Answer: IC50: 1.01 to 3 µM; IC50 (single experiment or average of multiple experiments): 3 µM

From patent US11512053B2, “Arginine methyltransferase inhibitors and uses thereof” (priority 2013, dated 2022)
